Experimental data reported in patent US20100210536A1, “USE OF LEPTIN (22-56 ) AS A THERAPEUTIC AGENT” (priority 2007, published 2010).
Where no end group is shown, it is not given here.

System: drug-resistant Mycobacterium tuberculosis
Conditions: peptide 10 micrograms per ml, seven days

VPIQKVQDDTKTLIKTIVTRINDISHTQSVSSKQK-OH [Leptin (22-56)]
% inhibition: 0.0%
